The text below walks through data of publication PMC2395260 (Genome Biology, 2008).

Where two headings read alike, the source gives them in different places.

In general, IC50 refers to the concentration that gives 50% inhibition.

Assay [1] relates to HCV subgenomic replicon (genotype 1b) harboring the V36G mutant in Huh-7.5 cells. The assay is described as follows: Two-day HCV replicon assay, V36G mutant. Format: cell-based, hepatitis C virus genotype 1b. The conditions noted are these: for IC50: Hepatitis C virus, Huh7.5, 48 h, read-out: IC50 (HCV RNA level in replicon cells reduced by 50%); for viral suppression in V36G mutant replicon assay in comparison to wild-type replicon assay: V36G versus wild-type replicon, genotype 1b, 48 h. The procedure: Only the SCH 503034 inhibitor is lacking the cyclopropyl group (Figure 1). We used a wild-type HCV replicon assay (genotype 1b) and an assay harboring the V36G mutant for in vitro testing. Detailed information on experimental procedures is given in Materials and methods.
SCH 503034 was synthesized by Schering-Plough Corporation (Kenilworth, NJ, USA), dissolved in dimethyl sulfoxide as a 19 mM solution. Both compounds were stored at 4°C.
The plasmid pFKI389neo/NS3-3'/ET contains HCV subgenomic replicon sequences derived from HCV genotype 1b and an upstream T7 promoter for in vitro RNA synthesis. The point mutation was generated with the QuikChange II XL Site-Directed Mutagenesis Kit (Stratagene, La Jolla, CA, USA). The plasmid was linearized with ScaI and purified by phenol chloroform extraction. The linearized and purified plasmid was transcribed by using a T7 RNA polymerase (Promega, Madison, WI, USA) according to the manufacturer's instructions. All of the plasmids and RNAs were checked for purity and integrity by standard procedures.
Huh-7.5 cells were cultured in Dulbecco's modified Eagle's medium (DMEM; Invitrogen, Carlsbad, CA, USA) containing 10% fetal bovine serum (FBS; PAA Laboratories GmbH, Pasching, Germany) and 2 mM L-glutamine. The cells were transfected with an in vitro-transcribed subgenomic HCV replicon RNA. The wild-type sequence was identical to that of the pFKI389neo/NS3-3'/ET replicon. Stable cells containing the self-replicating HCV replicon were selected and maintained in the presence of 750 μg of G418 (Invitrogen) per ml and were used for HCV replicon assays.
HCV replicon cells were plated in a 6-well plate at a density of 2 × 10^5 cells per well in DMEM with 10% FBS. On the following day (24 h later), the culture medium was replaced with DMEM containing either no compound as a control or compounds serially diluted in the presence of 10% FBS and 750 μg/ml G418. After the cells were incubated with the compounds for 48 h, the intracellular RNA was extracted with an RNeasy kit (Qiagen, Valencia, CA, USA). The level of HCV RNA was determined by a real-time quantitative reverse transcription-PCR (RT-PCR) assay (Taqman) with a pair of HCV-specific primers (5'-[…]-3' and 5'-[…]-3'), an HCV-specific probe (5'-6FAM-[…] XT-PH-3), and an ABI Prism 7000 sequence detection system (Applied Biosystems, Foster City, CA, USA).
Background: A replicon is a self-replicating genome or part of one, used to study replication in cells.

A further assay deals with HCV genotype 1. The conditions noted are these: phase 1b clinical trial, after treatment duration of 24 hours; cited from earlier work.
Assay [2] relates to NS3-4A protease A156I/T/V mutants. The settings on record: range over A156I/T/V mutants; cited from earlier work.
For assay [3], the system named is NS3-4A protease A156S mutant. The settings on record: cited from earlier work.
Assay [4] concerns wild-type NS3-4A protease, HCV genotype 1a (HCV-H). The conditions noted are these: HCV genotype 1a reference strain HCV-H; cited from earlier work.
Assay [5] relates to NS3-4A protease T54S mutant. The conditions noted are these: cited from earlier work.
The test system of assay [6] is NS3-4A protease R155G/I/K/L/M/S/T mutants. The conditions noted are these: cited from earlier work.
For assay [7], the system named is NS3-4A protease T54A mutant. The conditions noted are these: cited from earlier work.
Assay [8] relates to NS3-4A protease V36A/G/L/M mutants. The settings on record: cited from earlier work.

Take `CC(C)(C)NC(=O)N[C@H](C(=O)N1C[C@H]2[C@@H]([C@H]1C(=O)NC(CC1CCC1)C(=O)C(N)=O)C2(C)C)C(C)(C)C` (some centres unmarked) [SCH 503034, boceprevir]: in assay [1], the IC50 was under 5000 nM and the “viral suppression in V36G mutant replicon assay in comparison to wild-type replicon assay” value is given as “nearly equally effective”.

Regarding `CCC[C@H](NC(=O)[C@@H]1[C@H]2CCC[C@H]2CN1C(=O)[C@@H](NC(=O)[C@@H](NC(=O)c1cnccn1)C1CCCCC1)C(C)(C)C)C(=O)C(=O)NC1CC1` [VX-950, telaprevir], the “HCV RNA decline” value with HCV genotype 1 is recorded as “above 3 log”. For the same compound, the IC50 is 12500 to 50000 nM in assay [2]; 1400 nM in assay [3]; 70 nM in assay [4]; 120 nM in assay [5]; 538 nM in assay [6] (R155G/I/K/L/M/S/T mutants, read-out: IC50 mean); 275 to 1050 nM in assay [6] (range over R155G/I/K/L/M/S/T mutants, read-out: IC50 range). In addition, the 50% inhibitory concentration (IC50) was 749 nM in [7]; about 5000 nM in [1]; 226 nM in assay [8] (V36A/G/L/M mutants, read-out: IC50 mean); 110 to 444 nM in assay [8] (range over V36A/G/L/M mutants, read-out: IC50 range). In addition, the “viral suppression in V36G mutant replicon assay in comparison to wild-type replicon assay” value in assay [1] is “considerably delayed”.
